AUC data for two compounds are collected here from ChEMBL document CHEMBL3351598, “Strategies for the modulation of phase II metabolism in a series of PKCε inhibitors” (Bioorg Med Chem Lett, 2014).

A short description of this data set: AUC in beagle dog at 10 mg/kg, iv bolus dose. Details: dose 10 mg/kg, route intravenous. In kind it is ADME, organism-based, Canis lupus familiaris. As to conditions: plasma.

Regarding `N#CC1(c2cc(CCO)cc(-c3ccnc4[nH]nc(C(F)(F)F)c34)c2)CC1`, the area under the curve (AUC) (as a rule, the area under the concentration-time curve, a measure of exposure) was determined as 130 ng·h/mL.

Turning to `N#CC1(c2cc(C[C@@H](O)CO)cc(-c3ccnc4[nH]nc(C(F)(F)F)c34)c2)CC1`, the area under the curve (AUC) was 4400 ng·h/mL. This AUC is about 34-fold higher than that of the compound before.
